pKi: −log10 of the molar value.
How the values were obtained:
[1] = molecular target: Mitogen-activated protein kinase kinase kinase 14 (Homo sapiens, UniProt Q99558); test: Inhibition of NIK
[2] = molecular target: Protein kinase C beta type (Homo sapiens) (UniProt P05771); test: Inhibition of PKCbeta2 at 2 uM
[3] = Plasma concentration in rat at 3 mg/kg, iv after 4 hrs; type: ADME, organism-based; design: dose 3 mg/kg, route intravenous
[4] = molecular target: Tyrosine-protein kinase ABL1 (Homo sapiens) (UniProt P00519); test: Inhibition of ABL1 at 1 uM
[5] = molecular target: Fibroblast growth factor receptor 4 (Homo sapiens) (UniProt P22455); test: Inhibition of FGFR4 at 1 uM
[6] = molecular target: Fibroblast growth factor receptor 3 (Homo sapiens) (UniProt P22607); test: Inhibition of FGFR3 at 1 uM
Chain of Fibroblast growth factor receptor 3 (Homo sapiens) (P22607 23-806 limits assumed): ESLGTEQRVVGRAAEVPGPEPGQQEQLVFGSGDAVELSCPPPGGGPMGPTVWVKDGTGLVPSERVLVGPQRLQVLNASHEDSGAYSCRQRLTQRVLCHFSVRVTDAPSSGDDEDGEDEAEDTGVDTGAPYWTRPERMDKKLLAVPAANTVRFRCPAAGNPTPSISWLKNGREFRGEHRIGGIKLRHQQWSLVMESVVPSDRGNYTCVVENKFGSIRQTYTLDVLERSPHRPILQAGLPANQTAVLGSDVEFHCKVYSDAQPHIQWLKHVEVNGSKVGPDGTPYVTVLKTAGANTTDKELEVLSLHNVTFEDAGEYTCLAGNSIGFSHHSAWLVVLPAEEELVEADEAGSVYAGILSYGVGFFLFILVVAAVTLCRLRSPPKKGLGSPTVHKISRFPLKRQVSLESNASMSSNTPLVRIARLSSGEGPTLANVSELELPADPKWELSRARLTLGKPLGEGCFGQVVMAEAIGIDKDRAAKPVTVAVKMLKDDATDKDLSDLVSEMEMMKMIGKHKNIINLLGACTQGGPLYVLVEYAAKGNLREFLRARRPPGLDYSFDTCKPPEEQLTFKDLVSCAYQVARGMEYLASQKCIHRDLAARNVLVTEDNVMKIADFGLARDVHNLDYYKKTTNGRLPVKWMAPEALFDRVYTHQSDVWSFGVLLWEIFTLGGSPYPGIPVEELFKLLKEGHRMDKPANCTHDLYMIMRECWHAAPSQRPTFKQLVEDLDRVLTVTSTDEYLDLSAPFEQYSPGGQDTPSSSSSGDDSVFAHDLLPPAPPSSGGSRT

[7] = molecular target: Serine/threonine-protein kinase Nek1 (Homo sapiens) (UniProt Q96PY6); test: Inhibition of NEK1 at 1 uM
[8] = molecular target: Insulin receptor (Homo sapiens) (UniProt P06213); test: Inhibition of INSR at 1 uM
[9] = molecular target: 5'-AMP-activated protein kinase catalytic subunit alpha-2 (Homo sapiens) (UniProt P54646); test: Inhibition of AMPK at 2 uM
Chain of 5'-AMP-activated protein kinase catalytic subunit alpha-2 (Homo sapiens) (P54646 whole entry, looked up): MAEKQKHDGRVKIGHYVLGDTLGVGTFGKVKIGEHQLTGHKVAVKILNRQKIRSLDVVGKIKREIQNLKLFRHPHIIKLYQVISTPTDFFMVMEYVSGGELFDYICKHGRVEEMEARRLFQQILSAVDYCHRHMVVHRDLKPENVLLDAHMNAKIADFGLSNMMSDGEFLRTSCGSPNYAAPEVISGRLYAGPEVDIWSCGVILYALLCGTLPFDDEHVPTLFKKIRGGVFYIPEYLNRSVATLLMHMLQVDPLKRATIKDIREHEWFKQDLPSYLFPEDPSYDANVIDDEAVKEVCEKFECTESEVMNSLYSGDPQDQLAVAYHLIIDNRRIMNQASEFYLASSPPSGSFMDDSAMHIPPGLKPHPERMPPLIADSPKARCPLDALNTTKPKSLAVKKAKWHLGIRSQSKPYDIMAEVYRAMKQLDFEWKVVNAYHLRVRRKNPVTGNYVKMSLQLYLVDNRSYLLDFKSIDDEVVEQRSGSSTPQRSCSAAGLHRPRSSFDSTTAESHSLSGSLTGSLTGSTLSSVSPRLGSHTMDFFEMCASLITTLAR

[10] = molecular target: Tyrosine-protein kinase HCK (Homo sapiens) (UniProt P08631); test: Inhibition of HCK at 1 uM
Chain of Tyrosine-protein kinase HCK (Homo sapiens) (P08631 2-526 limits assumed): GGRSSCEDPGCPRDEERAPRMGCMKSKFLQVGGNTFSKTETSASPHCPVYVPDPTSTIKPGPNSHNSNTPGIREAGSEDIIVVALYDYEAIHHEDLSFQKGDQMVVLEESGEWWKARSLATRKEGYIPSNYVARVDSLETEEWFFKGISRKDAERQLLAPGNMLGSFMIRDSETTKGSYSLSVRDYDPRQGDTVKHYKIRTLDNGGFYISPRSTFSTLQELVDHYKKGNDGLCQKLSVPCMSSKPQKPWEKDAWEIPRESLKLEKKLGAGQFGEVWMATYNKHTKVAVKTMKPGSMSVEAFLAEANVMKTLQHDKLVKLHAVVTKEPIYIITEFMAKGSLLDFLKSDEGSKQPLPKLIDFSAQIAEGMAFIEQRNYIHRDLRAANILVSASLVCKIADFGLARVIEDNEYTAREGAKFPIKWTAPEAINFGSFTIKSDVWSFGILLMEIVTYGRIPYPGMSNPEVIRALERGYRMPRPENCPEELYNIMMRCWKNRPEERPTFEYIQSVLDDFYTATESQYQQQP

[11] = molecular target: Tyrosine-protein kinase Lyn (Homo sapiens) (UniProt P07948); test: Inhibition of LYN at 2 uM
[12] = molecular target: Mitogen-activated protein kinase kinase kinase 10 (Homo sapiens, UniProt Q02779); test: Inhibition of MLK2
[13] = molecular target: Serine/threonine-protein kinase PAK 1 (Homo sapiens) (UniProt Q13153); test: Inhibition of PAK1 at 1 uM
[14] = molecular target: Ribosomal protein S6 kinase alpha-6 (Homo sapiens) (UniProt Q9UK32); test: Inhibition of RSK4 at 1 uM
[15] = Volume of distribution at steady state in rat at 3 mg/kg, iv; type: ADME, organism-based; design: dose 3 mg/kg, route intravenous; details: in vivo, read-out: Vdss
[16] = Plasma concentration in rat at 3 mg/kg, iv after 8 hrs; type: ADME, organism-based; design: dose 3 mg/kg, route intravenous
[17] = AUC (0 to 8 hrs) in rat at 3 mg/kg, iv; type: ADME, organism-based; design: time < 8 hr, dose 3 mg/kg, route intravenous; details: plasma
[18] = molecular target: Ephrin type-B receptor 4 (Homo sapiens) (UniProt P54760); test: Inhibition of EPH-B4 at 1 uM
[19] = Plasma concentration in rat at 10 mg/kg, po after 8 hrs; type: ADME, organism-based; design: dose 10 mg/kg, route oral
[20] = molecular target: Death-associated protein kinase 1 (Homo sapiens) (UniProt P53355); test: Inhibition of DAPK1 at 1 uM
[21] = molecular target: Mitogen-activated protein kinase kinase kinase 7 (Homo sapiens, UniProt O43318); test: Inhibition of TAK1
[22] = molecular target: Mast/stem cell growth factor receptor Kit (Homo sapiens) (UniProt P10721); test: Inhibition of KIT at 1 uM
[23] = molecular target: Protein kinase C eta type (Homo sapiens) (UniProt P24723); test: Inhibition of PKCeta at 1 uM
[24] = Plasma concentration in mouse at 33 mg/kg, po after 4 hrs; type: ADME, organism-based; design: dose 33 mg/kg, route oral
[25] = molecular target: T1, RAC-gamma serine/threonine-protein kinase (Homo sapiens, UniProt Q9Y243); test: Inhibition of AKT3 at 1 uM
T1 sequence (Q9Y243 whole entry): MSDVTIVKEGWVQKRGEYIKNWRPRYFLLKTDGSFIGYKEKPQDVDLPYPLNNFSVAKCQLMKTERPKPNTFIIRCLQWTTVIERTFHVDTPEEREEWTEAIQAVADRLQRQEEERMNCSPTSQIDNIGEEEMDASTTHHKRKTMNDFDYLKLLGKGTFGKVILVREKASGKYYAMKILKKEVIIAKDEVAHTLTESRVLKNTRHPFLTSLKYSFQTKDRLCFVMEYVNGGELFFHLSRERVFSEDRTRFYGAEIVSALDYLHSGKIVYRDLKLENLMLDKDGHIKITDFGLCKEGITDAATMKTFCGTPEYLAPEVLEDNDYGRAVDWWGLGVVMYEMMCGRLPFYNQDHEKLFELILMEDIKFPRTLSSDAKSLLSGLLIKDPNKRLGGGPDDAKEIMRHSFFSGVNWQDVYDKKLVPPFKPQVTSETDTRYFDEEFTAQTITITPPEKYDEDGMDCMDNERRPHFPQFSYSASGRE

[26] = molecular target: T1, RAC-gamma serine/threonine-protein kinase; test: Inhibition of AKT3
[27] = molecular target: Tyrosine-protein kinase Fyn (Homo sapiens) (UniProt P06241); test: Inhibition of FYN at 2 uM
[28] = molecular target: Mitogen-activated protein kinase 11 (Homo sapiens) (UniProt Q15759); test: Inhibition of P38beta at 2 uM
[29] = molecular target: Serine/threonine-protein kinase D1 (Homo sapiens) (UniProt Q15139); test: Inhibition of PRKD1 at 1 uM
[30] = molecular target: Serine/threonine-protein kinase TBK1 (Homo sapiens, UniProt Q9UHD2); test: Inhibition of NAK
[31] = Plasma concentration in mouse at 5 mg/kg, iv after 4 hrs; type: ADME, organism-based; design: dose 5 mg/kg, route intravenous
[32] = Plasma concentration in mouse at 33 mg/kg, po after 8 hrs; type: ADME, organism-based; design: dose 33 mg/kg, route oral
[33] = molecular target: Serine/threonine-protein kinase N2 (Homo sapiens) (UniProt Q16513); test: Inhibition of PRK2 at 2 uM
[34] = molecular target: Serine/threonine-protein kinase 4 (Homo sapiens) (UniProt Q13043); test: Inhibition of MST1 at 1 uM
Chain of Serine/threonine-protein kinase 4 (Homo sapiens) (Q13043 whole entry): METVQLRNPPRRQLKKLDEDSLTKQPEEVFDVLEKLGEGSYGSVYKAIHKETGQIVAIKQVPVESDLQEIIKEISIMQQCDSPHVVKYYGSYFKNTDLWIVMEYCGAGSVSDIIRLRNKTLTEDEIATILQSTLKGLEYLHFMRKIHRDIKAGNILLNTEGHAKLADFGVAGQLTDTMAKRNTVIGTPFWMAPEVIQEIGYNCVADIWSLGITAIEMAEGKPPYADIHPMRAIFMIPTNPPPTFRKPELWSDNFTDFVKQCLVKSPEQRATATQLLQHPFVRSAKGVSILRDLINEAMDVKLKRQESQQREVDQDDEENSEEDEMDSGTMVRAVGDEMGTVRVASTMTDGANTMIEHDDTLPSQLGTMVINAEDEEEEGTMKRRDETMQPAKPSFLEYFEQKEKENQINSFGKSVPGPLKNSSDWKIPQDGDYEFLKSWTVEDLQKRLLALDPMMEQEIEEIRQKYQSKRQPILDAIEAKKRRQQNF

[35] = molecular target: Interleukin-1 receptor-associated kinase 4 (Homo sapiens, UniProt Q9NWZ3); test: Inhibition of IRAK4
[36] = molecular target: Serine/threonine-protein kinase BRSK2 (Homo sapiens) (UniProt Q8IWQ3); test: Inhibition of BRSK2 at 1 uM
[37] = molecular target: Tyrosine-protein kinase CSK (Homo sapiens) (UniProt P41240); test: Inhibition of CSK at 1 uM
[38] = molecular target: Tyrosine-protein kinase JAK3 (Homo sapiens, UniProt P52333); test: Inhibition of JAK3
[39] = molecular target: Mitogen-activated protein kinase 13 (Homo sapiens) (UniProt O15264); test: Inhibition of P38delta at 2 uM
[40] = molecular target: Epidermal growth factor receptor (Homo sapiens) (UniProt P00533); test: Inhibition of EGFR at 1 uM
Chain of Epidermal growth factor receptor (Homo sapiens) (P00533 whole entry): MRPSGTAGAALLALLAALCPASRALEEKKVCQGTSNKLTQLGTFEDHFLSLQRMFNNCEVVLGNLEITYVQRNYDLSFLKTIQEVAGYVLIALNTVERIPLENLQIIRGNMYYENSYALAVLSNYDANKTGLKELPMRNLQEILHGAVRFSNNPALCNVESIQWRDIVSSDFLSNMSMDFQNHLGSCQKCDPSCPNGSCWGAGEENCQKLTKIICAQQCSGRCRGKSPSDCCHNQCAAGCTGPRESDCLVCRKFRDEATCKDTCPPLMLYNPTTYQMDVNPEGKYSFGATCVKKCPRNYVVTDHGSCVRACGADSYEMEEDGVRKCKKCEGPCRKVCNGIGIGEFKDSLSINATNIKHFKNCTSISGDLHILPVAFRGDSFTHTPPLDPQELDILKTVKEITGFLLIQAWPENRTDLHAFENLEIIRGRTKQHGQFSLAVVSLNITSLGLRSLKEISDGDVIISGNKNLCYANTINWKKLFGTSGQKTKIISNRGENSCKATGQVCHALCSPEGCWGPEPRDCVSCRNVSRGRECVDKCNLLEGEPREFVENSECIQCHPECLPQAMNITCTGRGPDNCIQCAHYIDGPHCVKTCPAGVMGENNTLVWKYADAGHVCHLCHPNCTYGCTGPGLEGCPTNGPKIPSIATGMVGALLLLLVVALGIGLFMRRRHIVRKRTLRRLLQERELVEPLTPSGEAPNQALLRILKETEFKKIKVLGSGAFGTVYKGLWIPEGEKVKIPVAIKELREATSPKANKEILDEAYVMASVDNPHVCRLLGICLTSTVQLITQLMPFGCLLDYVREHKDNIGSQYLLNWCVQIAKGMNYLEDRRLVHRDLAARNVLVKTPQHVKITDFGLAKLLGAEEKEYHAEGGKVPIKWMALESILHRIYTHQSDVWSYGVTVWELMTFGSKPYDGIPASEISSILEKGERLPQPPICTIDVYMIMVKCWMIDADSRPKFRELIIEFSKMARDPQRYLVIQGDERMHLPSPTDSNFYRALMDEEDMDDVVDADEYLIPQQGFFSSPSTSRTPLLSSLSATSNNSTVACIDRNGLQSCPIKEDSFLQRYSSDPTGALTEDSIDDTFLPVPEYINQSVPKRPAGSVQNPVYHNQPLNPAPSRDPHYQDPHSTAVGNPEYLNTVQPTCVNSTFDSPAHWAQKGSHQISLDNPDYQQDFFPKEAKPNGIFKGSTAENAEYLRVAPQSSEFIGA

[41] = molecular target: Serine/threonine-protein kinase TBK1 (Homo sapiens) (UniProt Q9UHD2); test: Inhibition of TBK1 at 1 uM
[42] = Inhibition of PKA
[43] = molecular target: Ribosomal protein S6 kinase alpha-4 (Homo sapiens) (UniProt O75676); test: Inhibition of MSK2 at 1 uM
[44] = molecular target: RAF proto-oncogene serine/threonine-protein kinase (Homo sapiens) (UniProt P04049); test: Inhibition of cRAF at 2 uM
[45] = molecular target: Mitogen-activated protein kinase 12 (Homo sapiens) (UniProt P53778); test: Inhibition of P38gamma at 2 uM
[46] = Inhibition of GSK3
[47] = molecular target: Tyrosine-protein kinase BTK (Homo sapiens) (UniProt Q06187); test: Inhibition of BTK at 1 uM
[48] = molecular target: Mitogen-activated protein kinase kinase kinase 3 (Homo sapiens, UniProt Q99759); test: Inhibition of MEKK3
[49] = molecular target: Tyrosine-protein kinase ITK/TSK (Homo sapiens, UniProt Q08881); test: Inhibition of ITK
Chain of Tyrosine-protein kinase ITK/TSK (Q08881 whole entry): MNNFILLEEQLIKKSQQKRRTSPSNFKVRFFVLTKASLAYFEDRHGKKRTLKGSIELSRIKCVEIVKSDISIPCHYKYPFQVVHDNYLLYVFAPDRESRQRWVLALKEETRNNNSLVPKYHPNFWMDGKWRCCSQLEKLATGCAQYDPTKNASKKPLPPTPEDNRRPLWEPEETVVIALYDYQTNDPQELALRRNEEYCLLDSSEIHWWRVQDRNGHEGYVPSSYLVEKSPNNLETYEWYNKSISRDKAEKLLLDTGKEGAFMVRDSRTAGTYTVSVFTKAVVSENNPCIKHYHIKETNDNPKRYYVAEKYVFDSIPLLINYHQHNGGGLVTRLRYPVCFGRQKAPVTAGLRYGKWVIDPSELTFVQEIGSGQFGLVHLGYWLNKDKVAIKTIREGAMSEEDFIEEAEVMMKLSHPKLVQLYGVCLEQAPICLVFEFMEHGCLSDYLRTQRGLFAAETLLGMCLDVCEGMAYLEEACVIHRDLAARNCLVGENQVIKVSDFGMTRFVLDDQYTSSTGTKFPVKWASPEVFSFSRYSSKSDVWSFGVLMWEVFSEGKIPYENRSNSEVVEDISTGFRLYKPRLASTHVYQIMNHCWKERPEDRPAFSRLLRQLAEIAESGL

[50] = molecular target: cAMP-dependent protein kinase catalytic subunit PRKX (Homo sapiens) (UniProt P51817); test: Inhibition of PRKX at 1 uM
Chain of cAMP-dependent protein kinase catalytic subunit PRKX (Homo sapiens) (P51817 whole entry): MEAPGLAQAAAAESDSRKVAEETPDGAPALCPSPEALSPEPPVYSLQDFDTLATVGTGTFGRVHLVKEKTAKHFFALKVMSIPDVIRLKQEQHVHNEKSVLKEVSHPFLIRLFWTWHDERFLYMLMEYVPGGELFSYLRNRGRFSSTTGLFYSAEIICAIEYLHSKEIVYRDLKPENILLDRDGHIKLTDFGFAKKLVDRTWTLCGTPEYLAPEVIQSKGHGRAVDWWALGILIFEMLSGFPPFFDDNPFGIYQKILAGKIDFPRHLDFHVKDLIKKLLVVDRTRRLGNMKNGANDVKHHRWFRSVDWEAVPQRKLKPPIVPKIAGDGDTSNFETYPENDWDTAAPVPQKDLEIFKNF

[51] = molecular target: Serine/threonine-protein kinase D3 (Homo sapiens) (UniProt O94806); test: Inhibition of PRKD3 at 1 uM
[52] = molecular target: Serine/threonine-protein kinase Sgk2 (Homo sapiens) (UniProt Q9HBY8); test: Inhibition of SGK2 at 1 uM
[53] = molecular target: Inhibitor of nuclear factor kappa-B kinase subunit epsilon (Homo sapiens, UniProt Q14164); test: Inhibition of IKKi
[54] = molecular target: Insulin-like growth factor 1 receptor (Homo sapiens) (UniProt P08069); test: Inhibition of IGF1R at 1 uM

Cc1cnc(Nc2ccc(F)cc2Cl)nc1-c1c[nH]c(C(=O)N[C@H](CO)c2cccc(Cl)c2)c1
pKi [1]: < 5.30 | inhibition [2]: 4% | concentration at 4 h [3]: 123 ng/mL | inhibition [4]: 3% | inhibition [5]: 0.3% | inhibition [6]: 8% | inhibition [7]: 6% | inhibition [8]: 4% | inhibition [9]: 5% | inhibition [10]: 3% | inhibition [11]: 7% | pKi [12]: < 5.00 | inhibition [13]: 3% | inhibition [14]: 11% | Vd [15]: 4.9 L/kg | concentration at 8 h [16]: 50 ng/mL | AUC(0-t) at 8 h [17]: 1600 ng·h/mL | inhibition [18]: 0% | concentration at 8 h [19]: 267 ng/mL | inhibition [20]: 2% | pKi [21]: 5.52 | inhibition [22]: 8% | inhibition [23]: 2% | concentration at 4 h [24]: 488 ng/mL | inhibition [25]: 0% | pKi [26]: < 5.40 | inhibition [27]: 11% | inhibition [28]: 25% | inhibition [29]: 43% | pKi [30]: < 5.00 | concentration at 4 h [31]: 79 ng/mL | concentration at 8 h [32]: 122 ng/mL | inhibition [33]: 14% | inhibition [34]: 4% | pKi [35]: < 5.40 | inhibition [36]: 2% | inhibition [37]: 3% | pKi [38]: < 5.40 | inhibition [39]: 54% | inhibition [40]: 6% | inhibition [41]: 3% | pKi [42]: < 5.40 | inhibition [43]: 6% | inhibition [44]: 3% | inhibition [45]: 56% | pKi [46]: 6.40 | inhibition [47]: 5% | pKi [48]: < 5.40 | pKi [49]: < 5.40 | inhibition [50]: 3% | inhibition [51]: 21% | inhibition [52]: 41% | pKi [53]: < 5.30 | inhibition [54]: 2%
